{"source": "patent US8906826B2", "about": "“Herbicidal compositions comprising 4-amino-3-chloro-5-fluoro-6-(4-chloro-2-fluoro-3-methoxyphenyl) pyridine-2-carboxylic acid or a derivative thereof and imidazolinones” (Dow AgroSciences, LLC, priority 2012, dated 2014)", "key": {"[1]": {"test_system": "AVEFA", "assay": "Postemergence foliar-applied, general weed control (Example III)", "assay_type": "in vivo, Avena fatua L.", "procedure": "Seeds or nutlets of the desired test plant species were planted in Sun Gro Metro-Mix® 360 planting mixture, which typically has a pH of about 6.0 to about 6.8 and an organic matter content of about 30 percent, in plastic pots with a surface area of 84.6 cm^2 and a volume of 560 cubic centimeters (cm^3). When required to ensure good germination and healthy plants, a fungicide treatment and/or other chemical or physical treatment was applied. The plants were grown for 7-31 days (d) in a greenhouse with an approximate 15 hour (h) photoperiod which was maintained at about 23-29° C. during the day and about 22-28° C. during the night. Nutrients (Peters Excel® 15-5-15 5-Ca 2-Mg) and water were added on a regular basis and supplemental lighting was provided with overhead metal halide 1000-Watt lamps as necessary. The plants were employed for testing when they reached the first, second, or third true leaf stage.\n(§1) Treatment requirements were calculated based upon the rates being tested, the concentration of active ingredient or acid equivalent in the formulation, and a 12 mL application volume at a rate of 187 L/ha.\nTreatments consisted of the acid or esters of 4-amino-3-chloro-5-fluoro-6-(4-chloro-2-fluoro-3-methoxy-phenyl)pyridine-2-carboxylic acid (Compound A), each formulated as an SC, and various herbicidal components alone and in combination. Forms of compound A were applied on an acid equivalent basis. […]\nFor treatments comprised of formulated compounds, measured amounts of compounds were placed individually in 25 mL glass vials and diluted in a volume of 1.25% (v/v) Agri-Dex® crop oil concentrated to obtain 12× stock solutions. […]\nThe treated plants and control plants were placed in a greenhouse as described above and watered by sub-irrigation to prevent wash-off of the test compounds. After approximately 3 weeks, the condition of the test plants as compared with that of the untreated plants was determined visually and scored on a scale of 0 to 100 percent where 0 corresponds to no injury or growth inhibition and 100 corresponds to complete kill. […]"}, "[2]": {"test_system": "ECHCG", "assay": "Postemergence foliar-applied, direct seeded rice weeds (Example I)", "assay_type": "in vivo, Echinochloa crusgalli (L.) Beauv.", "text": "(§2) Seeds or nutlets of the desired test plant species were planted in a soil matrix prepared by mixing a loam or sandy loam soil (e.g., 28.6 percent silt, 18.8 percent clay, and 52.6 percent sand, with a pH of about 5.8 and an organic matter content of about 1.8 percent) and calcareous grit in an 80 to 20 ratio. The soil matrix was contained in plastic pots with a volume of 1 quart and a surface area of 83.6 cm^2. When required to ensure good germination and healthy plants, a fungicide treatment and/or other chemical or physical treatment was applied. The plants were grown for 8-22 days in a greenhouse with an approximate 14 h photoperiod which was maintained at about 29° C. during the day and 26° C. during the night. Nutrients (Peters Excel® 15-5-15 5-Ca 2-Mg and iron chelate) were applied in the irrigation solution as needed and water was added on a regular basis. Supplemental lighting was provided with overhead metal halide 1000-Watt lamps as necessary. The plants were employed for testing when they reached the first through fourth true leaf stage.\n(§3) Treatments consisted of the acid or esters of 4-amino-3-chloro-5-fluoro-6-(4-chloro-2-fluoro-3-methoxy-phenyl)pyridine-2-carboxylic acid (Compound A), each formulated as an SC (suspension concentrate), and various herbicidal components alone and in combination. Forms of compound A were applied on an acid equivalent basis.\n(§4) Other herbicidal components were applied on an acid equivalent basis and include acetolactate synthase (ALS)-inhibiting herbicides (imidazolinone chemical class) imazethapyr ammonium salt formulated as Newpath®, imazamox ammonium salt formulated as Beyond®, imazapic ammonium salt formulated as Plateau®, imazapyr isopropylamine salt formulated as Arsenal®, imazamethabenz-methyl (technical material) and imazaquin isopropylamine salt formulated as Scepter®/Imagine®.\nas §1\n(§5) For treatments comprised of formulated compounds, measured amounts of compounds were placed individually in 25 mL glass vials and diluted in a volume of 1.25% (v/v) Agri-Dex® crop oil concentrated to obtain 12× stock solutions. […] Application solutions were prepared by adding an appropriate amount of each stock solution (e.g., 1 mL) and diluted to the appropriate final concentrations with the addition of 10 mL of an aqueous mixture of 1.25% (v/v) crop oil concentrate so that the final spray solutions contained 1.25+/−0.05% (v/v) crop oil concentrate.\n(§6) For treatments comprised of technical compounds, weighed amounts can be placed individually in 25 mL glass vials and dissolved in a volume of 97:3 v/v acetone/DMSO to obtain 12× stock solutions. […] Application solutions can be prepared by adding an appropriate amount of each stock solution (e.g., 1 mL) and diluted to the appropriate final concentrations with the addition of 10 mL of an aqueous mixture of 1.5% (v/v) crop oil concentrate so that the final spray solutions contain 1.25% (v/v) crop oil concentrate. When technical materials are used, the concentrated stock solutions can be added to the spray solutions so that the final acetone and DMSO concentrations of the application solutions are 16.2% and 0.5%, respectively.\n(§7) For treatments comprised of formulated and technical compounds, weighed amounts of the technical materials were placed individually in 25 mL glass vials and dissolved in a volume of 97:3 v/v acetone/DMSO to obtain 12× stock solutions, and measured amounts of the formulated compounds were placed individually in 25 mL glass vials and diluted in a volume of 1.5% (v/v) crop oil concentrate or water to obtain 12× stock solutions. […]"}, "[3]": {"test_system": "CYPIR", "assay": "Postemergence foliar-applied, direct seeded rice weeds (Example I)", "assay_type": "in vivo, Cyperus iria L.", "text": "as §2, §3, §4, §1, §5, §6, §7"}}, "note": "Several values for one entry are separate records, joined by “and”; a condition that tells them apart may be missing. Equal entries are not always repeated.", "data": [{"smiles": "CCc1cnc(C2=NC(C)(C(C)C)C(=O)N2)c(C(=O)O)c1.N", "note": "(racemic) [Imazethapyr ammonium, ammonium (±)-2-[4,5-dihydro-4-methyl-4-(1-methylethyl)-5-oxo-1H-imidazol-2-yl]-5-ethyl-3-pyridinecarboxylate]", "values": [{"measurement": "Visual Weed Control (%) - 19 DAA AVEFA Obs", "setting": "[1]; Imazethapyr ammonium 70 gae/ha", "result": 80, "unit": "%"}]}, {"smiles": "Cc1cnc(C2=NC(C)(C(C)C)C(=O)N2)c(C(=O)O)c1.N", "note": "(racemic) [Imazapic ammonium, ammonium (±)-2-[4,5-dihydro-4-methyl-4-(1-methylethyl)-5-oxo-1H-imidazol-2-yl]-5-methyl-3-pyridinecarboxylic acid]", "values": [{"measurement": "Visual Weed Control (%) - 25 DAA ECHCG Obs", "setting": "[2]; Imazapic ammonium 4.38 gae/ha", "result": 20, "unit": "%"}, {"measurement": "Visual Weed Control (%) - 25 DAA ECHCG Obs", "setting": "[2]; Imazapic ammonium 8.75 gae/ha", "result": 40, "unit": "%"}, {"measurement": "Visual Weed Control (%) - 22 DAA CYPIR Obs", "setting": "[3]; Imazapic ammonium 7 gae/ha", "result": 20, "unit": "%"}, {"measurement": "Visual Weed Control (%) - 19 DAA AVEFA Obs", "setting": "[1]; Imazapic ammonium 35 gae/ha", "result": 70, "unit": "%"}]}, {"smiles": "COc1c(Cl)ccc(-c2nc(C(=O)OCc3ccccc3)c(Cl)c(N)c2F)c1F", "note": "[Compound A Benzyl Ester, benzyl ester of 4-amino-3-chloro-5-fluoro-6-(4-chloro-2-fluoro-3-methoxy-phenyl)pyridine-2-carboxylic acid]", "values": [{"measurement": "Visual Weed Control (%) - 22 DAA CYPIR Obs", "setting": "[3]; Compound A Benzyl Ester 8 gae/ha", "result": "20% and 30%"}, {"measurement": "Visual Weed Control (%) - 25 DAA CYPIR Obs", "setting": "[3]; Compound A Benzyl Ester 8.75 gae/ha", "result": 75, "unit": "%"}, {"measurement": "Visual Weed Control (%) - 22 DAA CYPIR Obs", "setting": "[3]; Compound A Benzyl Ester 16 gae/ha", "result": 85, "unit": "%"}]}, {"smiles": "COCc1cnc(C2=NC(C)(C(C)C)C(=O)N2)c(C(=O)O)c1.N", "note": "(racemic) [Imazamox ammonium, ammonium (±)-2-[4,5-dihydro-4-methyl-4-(1-methylethyl)-5-oxo-1H-imidazol-2-yl]-5-(methoxymethyl)-3-pyridinecarboxylate]", "values": [{"measurement": "Visual Weed Control (%) - 25 DAA ECHCG Obs", "setting": "[2]; Imazamox ammonium 5.6 gae/ha", "result": 15, "unit": "%"}, {"measurement": "Visual Weed Control (%) - 25 DAA ECHCG Obs", "setting": "[2]; Imazamox ammonium 11.2 gae/ha", "result": 20, "unit": "%"}, {"measurement": "Visual Weed Control (%) - 25 DAA ECHCG Obs", "setting": "[2]; Imazamox ammonium 22.4 gae/ha", "result": 60, "unit": "%"}, {"measurement": "Visual Weed Control (%) - 25 DAA CYPIR Obs", "setting": "[3]; Imazamox ammonium 11.2 gae/ha", "result": 20, "unit": "%"}, {"measurement": "Visual Weed Control (%) - 25 DAA CYPIR Obs", "setting": "[3]; Imazamox ammonium 22.4 gae/ha", "result": 70, "unit": "%"}]}, {"smiles": "COc1c(Cl)ccc(-c2nc(C(=O)O)c(Cl)c(N)c2F)c1F", "note": "[Compound A Acid, 4-amino-3-chloro-6-(4-chloro-2-fluoro-3-methoxyphenyl)-5-fluoropyridine-2-carboxylic acid]", "values": [{"measurement": "Visual Weed Control (%) - 25 DAA ECHCG Obs", "setting": "[2]; Compound A Acid 4.38 gae/ha", "result": 20, "unit": "%"}, {"measurement": "Visual Weed Control (%) - 25 DAA ECHCG Obs", "setting": "[2]; Compound A Acid 8.75 gae/ha", "result": 50, "unit": "%"}, {"measurement": "Visual Weed Control (%) - 19 DAA AVEFA Obs", "setting": "[1]; Compound A Acid 29 gae/ha", "result": 10, "unit": "%"}]}]}
